Where two headings read alike, the source gives them in different places.
Tests used:
[1] = molecular target: T1, CYP2D6 (Homo sapiens, UniProt P10635); test: Interaction with Cytochrome P450 isoenzymes: CYP2D6; format: in vitro ADME; settings: Supersomes expressing human CYP2D6, substrate AMMC, fluorometric; read-out: CYP450 interaction (IC50, uM) 2D6
T1 construct: purchased Gentest Corporation, Woburn, MA (Supersomes); host or cells: baculovirus-insect cells
Procedure: (§1) The assay was performed in a 96-well microtiter plates as described in Stresser et al., Drug Metab. Dispos. 28, 1440 (2000). Microsomes from baculovirus-insect cells (Supersomes, Gentest Corporation, Woburn, MA) expressing human cytochrome P450 isoforms (CYP1A2, CYP2C9, CYP2C19, CYP2D6 and CYP3A4) were utilized. Test compounds or standard inhibitors (dissolved in DMSO or acetonitrile) were serially diluted in a solution containing 16.3 uM NADP^+, 0.83 mM glucose-6-phosphate, 0.83 mM MgCl2, 0.4 U/mL of glucose-6-phosphate dehydrogenase and 0.1 mg/mL microsomal protein prepared from wild-type baculovirus-infected insect cells. Appropriate control wells without inhibitor and without microsomes were also added. The plates were then pre-warmed at 37°C for 10 min, and the reaction was started by adding pre-warmed enzyme/substrate mix (cytochrome P450 isoforms with their specific substrates in a 0.35 M potassium phosphate buffer at pH 7.4). Specific substrates were 3-cyano-7-ethoxycoumarin (CEC) for CYP1A2 and CYP2C19, 7-methoxy-4-trifluoromethylcoumarin (MFC) or dibenzylfluorescein (DBF) for CYP2C9, 3-[2-(N,N-diethyl-N-methylamino)ethyl]-7-methoxy-4-methylcoumarin (AMMC) for CYP2D6 and 7-benzyloxy-4-(trifluoromethyl)-coumarin (BFC) for CYP3A4. Reaction was terminated at various times, depending on the assays, by addition of a 4:1 acetonitrile:0.5 M Tris base solution. Known inhibitors for each isoenzyme (furafylline for CYP1A2, sulfaphenazole for CYP2C9, tranylcypromine for CYP2C19, quinidine for CYP2D6 and ketoconazole for CYP3A4) were tested in all assays as positive controls. Plates were read on a fluorometer (Fluoroskan Ascent, ThermoElectron Corporation, Helsinki, Finland) at the appropriate emission/excitation wavelengths. Median inhibitory concentration (IC50) was determined by nonlinear regression (GraFit software, Erithacus Software, Horley, UK).

[2] = molecular target: T2, CYP1A2 (Homo sapiens, UniProt P05177); test: Interaction with Cytochrome P450 isoenzymes: CYP1A2; format: in vitro ADME; settings: Supersomes expressing human CYP1A2, substrate CEC, fluorometric; read-out: CYP450 interaction (IC50, uM) 1A2
T2 construct: purchased Gentest Corporation, Woburn, MA (Supersomes); host or cells: baculovirus-insect cells
T2 sequence (P05177 1-516): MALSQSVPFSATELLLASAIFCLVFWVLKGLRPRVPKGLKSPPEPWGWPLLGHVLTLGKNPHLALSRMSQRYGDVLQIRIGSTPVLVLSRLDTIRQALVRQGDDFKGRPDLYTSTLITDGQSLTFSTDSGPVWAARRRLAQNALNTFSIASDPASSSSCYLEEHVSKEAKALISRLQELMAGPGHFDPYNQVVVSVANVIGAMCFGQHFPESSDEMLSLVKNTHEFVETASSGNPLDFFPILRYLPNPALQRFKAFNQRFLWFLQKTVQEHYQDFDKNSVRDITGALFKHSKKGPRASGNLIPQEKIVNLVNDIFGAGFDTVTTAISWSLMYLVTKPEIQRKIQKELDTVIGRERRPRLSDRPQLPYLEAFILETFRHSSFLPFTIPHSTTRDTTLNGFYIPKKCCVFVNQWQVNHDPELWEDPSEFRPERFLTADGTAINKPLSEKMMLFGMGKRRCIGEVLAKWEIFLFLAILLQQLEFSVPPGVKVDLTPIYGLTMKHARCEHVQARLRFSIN
Procedure: as §1

[3] = molecular target: T3, CYP2C9 (Homo sapiens, UniProt P11712); test: Interaction with Cytochrome P450 isoenzymes: CYP2C9; format: in vitro ADME; settings: Supersomes expressing human CYP2C9, substrate MFC or DBF, fluorometric; read-out: CYP450 interaction (IC50, uM) 2C9
T3 construct: purchased Gentest Corporation, Woburn, MA (Supersomes); host or cells: baculovirus-insect cells
Procedure: as §1

[4] = molecular target: T4, CYP3A4 (Homo sapiens, UniProt P08684); test: Interaction with Cytochrome P450 isoenzymes: CYP3A4; format: in vitro ADME; settings: Supersomes expressing human CYP3A4, substrate BFC, fluorometric; read-out: CYP450 interaction (IC50, uM) 3A4
T4 construct: purchased Gentest Corporation, Woburn, MA (Supersomes); host or cells: baculovirus-insect cells
Procedure: as §1

[5] = molecular target: T5, CYP2C19 (Homo sapiens, UniProt P33261); test: Interaction with Cytochrome P450 isoenzymes: CYP2C19; format: in vitro ADME; settings: Supersomes expressing human CYP2C19, substrate CEC, fluorometric; read-out: CYP450 interaction (IC50, uM) 2C19
T5 construct: purchased Gentest Corporation, Woburn, MA (Supersomes); host or cells: baculovirus-insect cells
Procedure: as §1

[6] = molecular target: ORL-1 receptor (Homo sapiens, UniProt P41146); test: ORL-1 receptor binding studies, radioligand [3H]-AcRYYRWK-NH2
Procedure: The receptor binding studies were carried out on 96-well plates; the incubation medium was Tris HCl pH 7.4 (4°C) containing MgCl2 (5 mM), EGTA (0.2 mM), BSA (0.1 %), with a final volume of […], using as radioligand [^3H]-AcRYYRWK-NH2 (Amersham, 103 Ci/mmol). The samples were incubated at 37°C for 120 min. and were then filtered off via Whatman GF/B filters pre-treated with 0.2% polyethylenimine. The filters were washed three times with Tris HCl buffer pH 7.4 (4°C). The radioactivity present on the filters was measured using a Packard Top Count microplate scintillation counter.

[7] = radioligand [3H]-AcRYYRWK-NH2, 37°C, 120 min, read-out: ORL-1 Binding affinity (Ki)

T1 sequence (P10635 whole entry): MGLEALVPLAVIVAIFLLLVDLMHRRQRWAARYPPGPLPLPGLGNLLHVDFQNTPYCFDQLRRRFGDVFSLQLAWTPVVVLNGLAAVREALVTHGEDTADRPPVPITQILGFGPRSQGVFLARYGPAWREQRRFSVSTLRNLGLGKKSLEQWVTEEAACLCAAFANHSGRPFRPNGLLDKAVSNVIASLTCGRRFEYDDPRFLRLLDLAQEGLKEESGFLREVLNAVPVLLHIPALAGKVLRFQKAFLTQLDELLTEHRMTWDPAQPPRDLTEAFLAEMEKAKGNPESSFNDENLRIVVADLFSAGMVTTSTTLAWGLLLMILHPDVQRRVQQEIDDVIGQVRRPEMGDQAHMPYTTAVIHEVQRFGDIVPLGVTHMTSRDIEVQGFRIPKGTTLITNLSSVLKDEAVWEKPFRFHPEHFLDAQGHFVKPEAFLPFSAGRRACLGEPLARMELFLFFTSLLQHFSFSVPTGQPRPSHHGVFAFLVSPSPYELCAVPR
T4 sequence (P08684 whole entry): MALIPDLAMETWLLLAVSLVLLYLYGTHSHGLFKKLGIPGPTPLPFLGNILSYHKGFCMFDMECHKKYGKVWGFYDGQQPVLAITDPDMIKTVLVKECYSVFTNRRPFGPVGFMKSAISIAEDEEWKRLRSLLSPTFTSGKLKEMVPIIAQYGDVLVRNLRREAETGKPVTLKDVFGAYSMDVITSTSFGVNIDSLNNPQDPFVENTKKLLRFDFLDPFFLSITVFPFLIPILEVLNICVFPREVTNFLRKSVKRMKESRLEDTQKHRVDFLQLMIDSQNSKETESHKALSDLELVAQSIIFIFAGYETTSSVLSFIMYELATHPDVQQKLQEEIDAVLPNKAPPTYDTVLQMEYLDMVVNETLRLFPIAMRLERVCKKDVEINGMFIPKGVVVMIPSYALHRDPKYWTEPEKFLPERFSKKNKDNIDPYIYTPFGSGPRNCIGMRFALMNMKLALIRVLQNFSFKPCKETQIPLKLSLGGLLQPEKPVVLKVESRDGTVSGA
Chain of ORL-1 receptor (P41146 whole entry): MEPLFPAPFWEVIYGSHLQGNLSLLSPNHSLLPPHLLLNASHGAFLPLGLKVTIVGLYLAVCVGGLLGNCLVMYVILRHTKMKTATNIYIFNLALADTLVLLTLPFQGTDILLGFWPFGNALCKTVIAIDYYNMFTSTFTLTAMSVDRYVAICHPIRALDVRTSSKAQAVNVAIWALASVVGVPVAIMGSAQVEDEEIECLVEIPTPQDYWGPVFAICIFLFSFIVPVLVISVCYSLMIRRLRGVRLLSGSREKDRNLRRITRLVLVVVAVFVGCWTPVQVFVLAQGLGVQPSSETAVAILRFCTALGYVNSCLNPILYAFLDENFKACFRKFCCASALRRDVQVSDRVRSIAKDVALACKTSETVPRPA
T3 sequence (P11712 whole entry): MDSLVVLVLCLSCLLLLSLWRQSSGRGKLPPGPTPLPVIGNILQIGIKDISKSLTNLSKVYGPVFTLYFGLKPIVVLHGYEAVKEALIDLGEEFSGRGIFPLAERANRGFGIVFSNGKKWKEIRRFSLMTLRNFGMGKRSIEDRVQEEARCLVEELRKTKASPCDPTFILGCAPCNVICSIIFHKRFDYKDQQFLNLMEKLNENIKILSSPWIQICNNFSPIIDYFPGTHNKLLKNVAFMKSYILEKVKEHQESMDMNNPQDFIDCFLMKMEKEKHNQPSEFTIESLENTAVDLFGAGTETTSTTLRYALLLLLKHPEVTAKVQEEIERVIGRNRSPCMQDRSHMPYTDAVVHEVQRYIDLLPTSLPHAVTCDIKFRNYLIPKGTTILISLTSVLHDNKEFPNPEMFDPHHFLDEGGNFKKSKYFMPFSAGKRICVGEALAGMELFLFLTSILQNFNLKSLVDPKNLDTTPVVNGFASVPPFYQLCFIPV
T5 sequence (P33261 whole entry): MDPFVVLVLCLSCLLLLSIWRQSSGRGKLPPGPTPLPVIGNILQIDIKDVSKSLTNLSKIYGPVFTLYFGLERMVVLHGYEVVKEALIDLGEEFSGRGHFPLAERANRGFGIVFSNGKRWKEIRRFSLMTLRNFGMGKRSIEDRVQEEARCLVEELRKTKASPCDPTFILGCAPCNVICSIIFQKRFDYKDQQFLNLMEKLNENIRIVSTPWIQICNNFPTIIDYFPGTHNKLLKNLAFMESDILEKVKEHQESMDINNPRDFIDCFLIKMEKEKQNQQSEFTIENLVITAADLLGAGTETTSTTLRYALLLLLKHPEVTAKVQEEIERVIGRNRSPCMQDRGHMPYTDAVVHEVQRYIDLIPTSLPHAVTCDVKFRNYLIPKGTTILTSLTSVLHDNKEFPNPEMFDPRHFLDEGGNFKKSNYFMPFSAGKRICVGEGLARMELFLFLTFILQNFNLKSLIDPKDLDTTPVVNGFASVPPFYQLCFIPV

SMILES | IC50 [1] [µM] | IC50 [2] [µM] | IC50 [3] [µM] | IC50 [4] [µM] | IC50 [5] [µM] | Ki [6, 7] [µM] | Ki [6] [µM]
Fc1cccc(F)c1C1CCN(Cc2c(-c3ccccc3)[nH]c3ccccc23)CC1 [53 (W02005005411), reference compound] | < 0.1 | 11.8 | 10.7 | 13 | 17.4 | – | –
O=C(c1[nH]c2ccccc2c1CN1CCC(c2c(F)cccc2F)CC1)N1CCN(CCOCCO)CC1 [Example 6, {3-[4-(2,6-Difluoro-phenyl)-piperidin-1-ylmethyl]-1H-indol-2-yl}-{4-[2-(2-hydroxy-ethoxy)-ethyl]-piperazin-1-yl}-methanone] | 5.1 | > 100 | > 100 | 98.2 | > 100 | 0.034 | –
Cc1c(CN2CCC(c3c(F)cccc3Cl)CC2)c2ccccc2n1CC(=O)NC1CCN(C)CC1 [Example 11, 2-{3-[4-(2-Chloro-6-fluoro-phenyl)-piperidin-1-ylmethyl]-2-methyl-indol-1-yl}-N-(1-methyl-piperidin-4-yl)-acetamide] | 20.7 | > 100 | > 100 | 9.6 | 47.4 | – | 0.0055
O=C(Cn1c(-c2ccccc2)c(CN2CCC(c3c(F)cccc3F)CC2)c2ccccc21)N1CCOCC1 [Example 13, 2-{3-[4-(2,6-Difluoro-phenyl)-piperidin-1-ylmethyl]-2-phenyl-indol-1-yl}-l-morpholin-4-yl-ethanone] | 94.6 | > 100 | 98.6 | 38.1 | 62.6 | – | 0.018

The next lines start with results.

IC50 [1] [µM] | IC50 [2] [µM] | IC50 [3] [µM] | IC50 [4] [µM] | IC50 [5] [µM] | Ki [6, 7] [µM] | SMILES | Ki [6] [µM]
8.6 | > 100 | 25.9 | 54.7 | 47.5 | 0.0042 | CC(=O)N(C)C1CCN(C(=O)c2[nH]c3ccccc3c2CN2CCC(c3c(F)cccc3Cl)CC2)C1 (stereo not shown) [Example 3, N-(1-{3-[4-(2-Chloro-6-fluoro-phenyl)-piperidin-1-ylmethyl]-1 H-indole-2-carbonyl}-pyrrolidin-3-yl)-N-methyl-acetamide] | –
16.8 | > 100 | 20.2 | 13.3 | 25.1 | 0.0048 | NC(=O)Cn1c(C(=O)N2CCOCC2)c(CN2CCC(c3c(F)cccc3Cl)CC2)c2ccccc21 [Example 7, 2-[3-[4-(2-Chloro-6-fluoro-phenyl)-piperidin-1-ylmethyl]-2-(morpholine-4-carbonyl)-indol-1-yl]-acetamide] | –
6.2 | 86 | 31.2 | 25.6 | 70.1 | – | NC(=O)Cn1c(C(=O)N2CCOCC2)c(CN2CCC(c3c(F)cccc3F)CC2)c2ccccc21 [Example 8, 2-[3-[4-(2,6-Difluoro-phenyl)-piperidin-1-ylmethyl]-2-(morpholine-4-carbonyl)-indol-1-yl]-acetamide] | –
36.6 | > 100 | > 100 | 18.2 | > 100 | 0.0028 | O=C(Cn1c(-c2ccccc2)c(CN2CCC(c3c(F)cccc3Cl)CC2)c2ccccc21)N1CCOCC1 [Example 12, 2-{3-[4-(2-Chloro-6-fluoro-phenyl)-piperidin-1-ylmethyl]-2-phenyl-indol-1-y}-1-morpholin-4-yl-ethanone] | –
34.7 | > 100 | 74.4 | 6.2 | 38.3 | 0.0082 | CN1CCN(C(=O)Cn2c(-c3ccccc3)c(CN3CCC(c4c(F)cccc4F)CC3)c3ccccc32)CC1 [Example 15, 2-{3-[4-(2,6-Difluoro-phenyl)-piperidin-1-ylmethyl]-2-phenyl-indol-1-yl}-1-(4-methyl-piperazin-1-yl)-ethanone] | –

Reference: EP1873150A1, “Fluorinated indoleamides useful as ligands of the ORL-1 receptor” (NIKEM RESEARCH S.R.L., priority 2006, dated 2008)
